Data on six molecules can be found in patent US20230203471A1, “METHOD AND PLATFORM FOR DISRUPTING INTRACELLULAR MICROTUBULES” (National Tsing Hua University, priority 2021, published 2023).

Experiment [1] addresses TagRFP-FRB-A1AY1 (Artificial Sequence). Briefly: live-cell imaging, addition of rapamycin.
Experiment [2] has as its system intracellular microtubules in HeLa cells. Briefly: Live-cell imaging of MT disruption (MT filament area) in transfected HeLa cells. In kind it is cell-based. As to conditions: HeLa cells co-transfected with EMTB-CFP-FRB, upon rapamycin (100 nM) treatment. As to the method: (§1) The procedures of live-cell imaging are as follows. Live transfected cells cultured on poly(d-lysine)-coated glass coverslips (Hecht Assistent) were treated with either 100 nM rapamycin for rapid induction of protein dimerization and translocation or MT-targeting agents (10 µM nocodazole or 500 µM colchicine) during imaging. Live-cell imaging was conducted on a Nikon T1 inverted fluorescence microscope (Nikon) with a 60× oil objective (Nikon), a Prime camera (Photometrics), and 37° C., 5% CO2 heat stage (Live Cell Instrument). Rapid recruitment of proteins of interest (POIs) was imaged at 5- or 10-sec intervals, whereas the process of MT disruption was imaged at 1-min intervals. Images were obtained using Nikon NIS-Elements AR software and processed with Huygens Deconvolution Software (Scientific Volume Imaging). Image analysis was mainly performed with Nikon NIS-Elements AR software.
The procedures of measurement of MT filament area are as follows. The MT filaments in living cells were labeled with EMTB-CFP-FRB and imaged in real time (RAW image). The rolling ball correction was used to remove the cytosol background from the RAW images, which was carried out with the Nikon NIS-Elements AR software. Images were processed to generate the binary MT filament pattern via the Otsu threshold and analyzed by Fiji software.
FIGS. 2D and 2E show rapidly recruiting engineered spastins onto MTs. […] The top three layers are cells that simultaneously express EMTB-CFP-FRB and dNSpastin3Q-YFP-FKBP. The lower three layers are cells that simultaneously express EMTB-CFP-FRB and dNSpastin-YFP-FKBP-C2Lact. The color bar on the right indicates the brightness value represented by the color of the FRET signal. […] Data are shown as the mean ± S.E.M. It was noteworthy that MT disruption triggered by dNSpastin3Q-YFP-FKBP upon rapamycin treatment (T½ = 11.05 ± 1.52 min) was much faster than that of dNSpastin-YFP-FKBP-C2Lact upon rapamycin treatment (T½ = 53.08 ± 8.08 min), and treatment of two common MTAs, nocodazole (10 µM; T½ = 54.02 ± 10.29 min), colchicine (500 µM; T½ = 94.28 ± 8.63 min; see FIGS. 2F to 2J). […] In FIG. 2H, HeLa cells transfected with the indicated constructs were treated with nocodazole (Noc)([…], a type of MTA), colchicine (Col)(500 µM, a type of MTA), or rapamycin (Rapa)(100 nM); scale bar, 10 µm. […] Data are shown as the mean ± S.E.M. Student’s t-tests were performed, with the resulting p-values indicated.

Experiment [3] relates to EMTB-CFP-FRB-labeled MTs in HeLa cells. Briefly: Rapamycin-induced translocation of FKBP-tagged proteins onto EMTB-CFP-FRB-labeled MTs (FRET, live-cell imaging). The class given is cell-based. As to conditions: 100 nM rapamycin, FRET signal. As to the method:
as §1
FIGS. 1B and 1C show the MT-binding domain of ensconsin-cyan fluorescent protein-FKBP-rapamycin binding domain (EMTB—CFP—FRB) localizes to cytosolic MTs. […] Scale bar, 10 µm. […] Subsequently, the addition of rapamycin to HeLa cells led to the rapid translocation of yellow fluorescent protein-tagged FKBP (YFP—FKBP) onto EMTB—CFP—FRB-labeled MTs as evidenced by an increased FRET (fluorescence resonance energy transfer) signal on MTs (T½ of translocation: 5.73 ± 0.54 sec; FIGS. 1D and 1E). […]

Experiment [4] relates to cytosolic MTs in HeLa cells. In words: Immunofluorescence staining of α-tubulin in HeLa cells expressing spastin constructs. The class given is cell-based. As to conditions: HeLa cells co-transfected with EMTB-CFP-FRB. On the procedure:
(§2) The procedures of immunofluorescence staining are as follows. Cells cultured in borosilicate glass Lab-Tek eight-well chambers (Nunc) were fixed in 4% paraformaldehyde (Electron Microscopy Sciences) at room temperature for 15 min. Fixed cells were permeabilized with 0.1% Triton X-100 and then incubated in blocking solution (phosphate-buffered saline with 2% bovine serum albumin) for 30 min at room temperature. To label cytosolic MTs, primary ciliary membrane, and axonemal MTs, cells were incubated for 1 hr at room temperature with mouse antibody against α-tubulin (1:500; Sigma Aldrich, T6199), rabbit antibody against Arl13b (1:500; Proteintech, 17711-1-AP), mouse antibody against glutamylated tubulin (1:100; Adipogen, AG-20B-0020-C100), mouse antibody against acetylated tubulin (1:500; Sigma Aldrich, T7451), rat antibody against tyrosinated tubulin (1:100; Sigma Aldrich, MAB1864), and mouse antibody against detyrosinated tubulin (1:100; MERCK, AB3201) each of which was diluted in blocking solution. Cells were then washed with PBS and incubated for 1 hr with appropriate secondary antibodies (1:1000 dilution; Thermo Fisher) at room temperature.
Spastin is a MT-cleaving enzyme that is ubiquitous in nearly all eukaryotic cells. Expression of full-length spastin (SpastinFL-YFP; the amino acid sequence of spastin is SEQ ID NO: 1) and truncated spastin without the N-terminal 1-140 amino acids (dNSpastin-YFP) in HeLa cells removed significant amounts of cytosolic MTs, 47.45% and 42.86%, respectively, relative to YFP-transfected control cells (See FIGS. 2A to 2C). This means that both full-length spastin and truncated spastin without N-terminal 1-140 amino acids have the effect on disrupting microtubules. FIGS. 2A to 2C show the microtubule cleavage activity of artificially engineered spastin enzyme. […] The dotted line on the right indicates the periphery of the cell that expresses spastin. […] SpastinFL expressed in cells can disrupt the intracellular microtubules. Making SpastinFL be located in the cytosol, truncated spastin would also disrupt the intracellular microtubules, so it would also be located in the cytosol. […] The truncated spastin is used in the subsequent experiments. […] Compared with the YFP control group, both SpastinFL-YFP and dNSpastrin-YFP can disrupt about 40% of the microtubules. Thus the N-terminal fragment (1-140 amino acids) was dispensable for Spastin-mediated MT severing. […]

Experiment [5] has as its target T1, spastin (Mus musculus, UniProt Q9QYY8, K308Q/K309Q/K310Q).
T1 construct: expressed in transfected cells; host or cells: HeLa (CCL-2)
T1 sequence (Q9QYY8 with tags, fused parts or gaps K308Q/K309Q/K310Q): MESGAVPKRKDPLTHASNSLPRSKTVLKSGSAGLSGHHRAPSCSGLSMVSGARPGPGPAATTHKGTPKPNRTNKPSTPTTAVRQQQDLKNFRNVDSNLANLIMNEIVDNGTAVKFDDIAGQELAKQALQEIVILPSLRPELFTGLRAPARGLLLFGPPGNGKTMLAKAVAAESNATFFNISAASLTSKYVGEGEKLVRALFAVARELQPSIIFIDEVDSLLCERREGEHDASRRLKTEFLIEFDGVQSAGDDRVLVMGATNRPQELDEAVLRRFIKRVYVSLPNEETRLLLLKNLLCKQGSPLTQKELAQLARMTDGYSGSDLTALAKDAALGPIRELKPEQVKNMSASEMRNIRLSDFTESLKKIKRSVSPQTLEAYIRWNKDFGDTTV
In words: Reversal of MT disruption by spastin inhibition and MT regrowth in HeLa cells. The class given is cell-based. As to conditions: spastazoline 10 µM added after 28 min rapamycin; dNSpastin3Q-YFP-FKBP and EMTB-CFP-FRB HeLa cells. As to the method: FIGS. 2S to 2U show inhibition of spastin activity reverses MT disruption. In FIG. 2S, HeLa cells co-transfected with EMTB—CFP—FRB (black) and dNSpastin3Q-YFP-FKBP (green) were pre-treated with rapamycin for 28 min to induce acute MT disassembly; spastazoline (10 µM), a spastin inhibitor, was then added to the cultures to halt the MT disruption system; arrows indicate the centrosome-derived MTs; scale bar, 10 µm. […] Data (red) are shown as the mean ± SD. A Student’s t-test was performed to generate the indicated p-value.
Intriguingly, nascent MTs from the fragments derived from dNspastin3Q-mediated cleavage assembled at a polymerization rate of 0.92 ± 0.04 µm/sec, which was slightly slower than the regrowth rate of 1.17 ± 0.07 µm/sec for MTs from centrosomes (see FIG. 2U). […] In particular, microtubule filaments are composed of microtubule molecules. If they are only disassembled into microtubule molecules and the raw materials are still there, they would have the opportunity to quickly assemble them back. But if the microtubule molecules are degraded and the raw materials are gone, they can’t be quickly reassembled. In summary, rapid recruitment of dNSpastin3Q-YFP-FKBP onto MTs efficiently triggered MT disassembly in living cells upon dimerization induction.

The subject of experiment [6] is tyrosinated MTs in COS7 cells. In words: Targeting of TagRFP-FRB-A1AY1 and rapamycin-induced recruitment onto A1AY1-bound MTs. The class given is cell-based, African green monkey. As to the method:
as §2
MTs undergo various post-translational modification (PTMs) for spatiotemporally regulating their properties and functions. The inventors next turned efforts to precisely disrupt MTs with specific PTMs. […]

Take TagCFP, tagged FKBP (TagCFP-FKBP): the T½ of recruitment in experiment [1] was found to be 1.08 min.

As for “dNSpastin-YFP-FKBP-C2Lact: truncated spastin tagged with YFP-FKBP and plasma membrane-binding sequence C2Lact”, the “T½ of MT disruption” value in experiment [2] amounted to 53.08 ± 8.08 min. For the same molecule, in experiment [3], the “T½ of translocation from cytosol onto EMTB-CFP-FRB-labeled MTs” value stood at 0.924 ± 0.14 min. Also, in experiment [4] (100 nM rapamycin 1 hr), the “MT disruption after rapamycin treatment” value is “robustly disrupted MTs”. The “MT-severing activity before rapamycin treatment” value in experiment [4] (0.1% DMSO) was “low MT-severing activities”. Consider `CC(C)[C@@H]1CN(c2nc(Nc3cc(C(C)(C)C)[nH]n3)c3cc[nH]c3n2)CCN1` [spastazoline, reference compound], for which the “effect of spastin inhibitor on rapamycin-mediated MT disruption” value in experiment [5] is “swiftly reversed rapamycin-mediated acute MT disruption”.

Consider “YFP—FKBP: yellow fluorescent protein-tagged FK506-binding protein [reference compound]”, for which the “T½ of translocation from cytosol onto EMTB-CFP-FRB-labeled MTs” value in experiment [3] turned out to be 0.0955 ± 0.009 min.

With “TagCFP—FKBP: cyan fluorescent protein TagCFP-tagged FKBP [reference compound]”, the “T½ of recruitment onto TagRFP-FRB-A1AY1-bound MTs” value in experiment [6] (addition of rapamycin) is 1.078 ± 0.268 min.

B1: TagRFP—FRB—A1AY1: A1AY1 (SEQ ID NO:16), targets tyrosinated MTs, tagged with FRB and red fluorescent protein TagRFP (protein)
chain: MVSKGEELIKENMHMKLYMEGTVNNHHFKCTSEGEGKPYEGTQTMRIKVVEGGPLPFAFDILATSFMYGSRTFINHTQGIPDFFKQSFPEGFTWERVTTYEDGGVLTATQDTSLQDGCLIYNVKIRGVNFPSNGPVMQKKTLGWEANTEMLYPADGGLEGRTDMALKLVGGGHLICNFKTTYRSKKPAKNLKMPSVYYVDHRLERIKEADKETYVEQHEVAVARYCDLPSKLGHKLNLYKILWHEMWHEGLEEASRLYFGERNVKGMFEVLEPLHAMMERGPQTLKETSFNQAYGRDLMEAQEWCRKYMKSGNVKDLLQAWDLYYHVFRRISKMATVKFKYKGEEKQVDISKILSVGRYGKLIHFLYDLGGGKAGMGMVSEKDAPKELLQMLEKQKK
On to B1, for which, in experiment [6] (COS7 cells, immunostaining), the “targeting of construct to MT subtypes” value is “preferentially targeted to generic MTs and tyrosinated MTs but not to detyrosinated MTs”.
